This is an account of results in US10577363B2, “Substituted piperidine compounds” (EPIZYME, INC., priority 2014, dated 2020).

SMILES strings stand for the structures.

For the test, the target named is SMYD3 (Homo sapiens (Human), UniProt Q9H7B4). Nature of the test: SMYD3 biochemical assay (SPA, 3H-SAM methylation of MEKK2 protein substrate). Conditions: read-out: SMYD3 Biochem IC50 (μM)*. The source says:
S-adenosylmethionine (SAM), S-adenosylhomocysteine (SAH), Tris, Tween20, dimethylsulfoxide (DMSO), bovine skin gelatin (BSG), and Tris(2-carboxyethyl)phosphine hydrochloride solution (TCEP) were purchased from Sigma-Aldrich at the highest level of purity possible. ^3H-SAM was purchase from American Radiolabeled Chemicals with a specific activity of 80 Ci/mmol. 384-well opaque white OptiPlates and SPA beads (Perkin Elmer, catalog # RPNQ0013) were purchased from PerkinElmer.
N-terminally GST-tagged MEKK2 (MAP3K2) protein corresponding to reference sequence AAF63496.3 was purchased from Life Technologies (catalog # PV4010). This protein was expressed in High Five insect cells and purified to >85% purity. Protein identity was confirmed by MS/MS analysis after proteolytic digestion. The protein sequence used was:
Full-length human SMYD3 isoform 1 (BAB86333) was inserted into a modified pET21b plasmid containing a His6 tag and TEV and SUMO cleavage sites.
E. coli (BL21 codonplus RIL strain, Stratagene) were transformed with plasmid pEPZ553 by mixing competent cells and plasmid DNA and incubating on ice for 30 minutes followed by heat shock at 42° C. for 1 minute and cooling on ice for 2 minutes. Transformed cells were grown and selected on LB agar with 100 μg/mL ampicillin and 17 μg/mL chloramphenicol at 37° C. overnight. A single clone was used to inoculate 200 mL of LB medium with 100 μg/mL ampicillin and 17 μg/mL chloramphenicol and incubated at 37° C. on an orbital shaker at 180 rpm. Once in log growth, the culture was diluted 1:100 into 2 L of LB medium and grown until OD600 was about 0.3 after which the culture was incubated at 15° C. and 160 rpm. Once OD600 reached about 0.4, IPTG was added to a final concentration of 0.1 mM and the cells were grown overnight at 15° C. and 160 rpm. Cells were harvested by centrifugation at 8000 rpm, for 4 minutes at 4° C. and stored at −80° C. for purification.
The column was washed with Buffer B (Buffer A plus 20 mM imidazole) and His-tagged SMYD3 was eluted with Buffer C (Buffer A plus 300 mM imidazole). The His tag, TEV and SUMO cleavage sites were removed generating native SMYD3 by addition of ULP1 protein at a ratio of 1:200 (ULP1:SMYD3). Imidazole was removed by dialysis overnight in Buffer A. The dialyzed solution was applied to a second Nickel column and the native SMYD3 protein was collected from the column flow-through. The flow-through was dialyzed in Buffer D (25 mM Tris, 5% glycerol, 5 mM β-mercaptoethanol, 50 mM NaCl, pH7.8) and ULP1 was removed using a Q sepharose fast flow column.
General Procedure for SMYD3 Enzyme Assays on MEKK2 Protein Substrate
The assays were all performed in a buffer consisting of 25 mM Tris-Cl pH 8.0, 1 mM TCEP, 0.005% BSG, and 0.005% Tween 20, prepared on the day of use. […] DMSO (1 ul) was added to Columns 11, 12, 23, 24, rows A-H for the maximum signal control and 1 ul of SAH, a known product and inhibitor of SMYD3, was added to columns 11, 12, 23, 24, rows I-P for the minimum signal control. A cocktail (40 ul) containing the SMYD3 enzyme was added by Multidrop Combi (Thermo-Fisher). The compounds were allowed to incubate with SMYD3 for 30 min at room temperature, then a cocktail (10 ul) containing SAM and MEKK2 was added to initiate the reaction (final volume=51 ul). […] The assays were stopped by the addition of non-radiolabeled SAM (10 ul) to a final concentration of 100 uM, which dilutes the ^3H-SAM to a level where its incorporation into MEKK2 is no longer detectable. Radiolabeled MEKK2 was detected using a scintillation proximity assay (SPA). 10 uL of a 10 mg/mL solution of SPA beads in 0.5 M citric acid was added and the plates centrifuged at 600 rpm for 1 min to precipitate the radiolabeled MEKK2 onto the SPA beads. The plates were then read in a PerkinElmer TopCount plate reader to measure the quantity of ^3H-labeled MEKK2 as disintegrations per minute (dpm) or alternatively, referred to as counts per minute (cpm).

Usually IC50 stands for the concentration at which inhibition is half-maximal. In the case of `C[C@H](N)C(=O)NC[C@@H](Cc1ccc(O)c(I)c1)C(=O)N1CCC(NC(=O)c2cc(C3CC3)on2)CC1` [compound 61, N-(1-((R)-3-((S)-2-aminopropanamido)-2-(4-hydroxy-3-iodobenzyl)propanoyl)piperidin-4-yl)-5-cyclopropylisoxazole-3-carboxamide], the IC50 worked out at 15.3 µM.
Under `C[C@H](N)C(=O)NC[C@H](Cc1ccc(O)c(I)c1)C(=O)N1CCC(NC(=O)c2cc(C3CC3)on2)CC1` [compound 62, N-(1-((S)-3-((S)-2-aminopropanamido)-2-(4-hydroxy-3-iodobenzyl)propanoyl)piperidin-4-yl)-5-cyclopropylisoxazole-3-carboxamide] stands 1.33 µM; under `NC[C@H](Cc1ccc(O)c(Cl)c1)C(=O)N1CCC(NC(=O)c2cc(C3CC3)on2)CC1` [compound 64, (S)-N-(1-(3-amino-2-(3-chloro-4-hydroxybenzyl)propanoyl)piperidin-4-yl)-5-cyclopropylisoxazole-3-carboxamide], 7.16 µM.
For `C[C@H]1CN(C(=O)[C@@H](N)Cc2ccc(O)cc2)CCC1NC(=O)c1cc(C2CC2)on1` (stereo partly drawn) [compound 67, N-((3S)-1-(L-tyrosyl)-3-methylpiperidin-4-yl)-5-cyclopropylisoxazole-3-carboxamide], the IC50 was determined as 2.32 µM.
The value for `C[C@@H]1CN(C(=O)[C@@H](N)Cc2ccc(O)cc2)CCC1NC(=O)c1cc(C2CC2)on1` (stereo partly drawn) [compound 68, N-((3R)-1-(L-tyrosyl)-3-methylpiperidin-4-yl)-5-cyclopropylisoxazole-3-carboxamide] was 1.69 µM.
Under `C[C@H]1CC(NC(=O)c2cc(C3CC3)on2)CCN1C(=O)CCN1CCCC1` (stereo partly drawn) [compound 69, 5-cyclopropyl-N-((2S)-2-methyl-1-(3-(pyrrolidin-1-yl)propanoyl)piperidin-4-yl)isoxazole-3-carboxamide] stands 12.4 µM; under `C[C@@H]1CC(NC(=O)c2cc(C3CC3)on2)CCN1C(=O)CCN1CCCC1` (stereo partly drawn) [compound 70, 5-cyclopropyl-N-((2R)-2-methyl-1-(3-(pyrrolidin-1-yl)propanoyl)piperidin-4-yl)isoxazole-3-carboxamide], 7.73 µM.
With `C[C@H]1CC(NC(=O)c2cc(C3CC3)on2)CCN1C(=O)[C@H]1C[C@@H](N)C1` (stereo partly drawn) [compound 71, N-((2S)-1-((1s,3R)-3-aminocyclobutane-1-carbonyl)-2-methylpiperidin-4-yl)-5-cyclopropylisoxazole-3-carboxamide], the IC50 came out at 2.54 µM.
Regarding `C[C@H]1CC(NC(=O)c2cc(C3CC3)on2)CCN1C(=O)[C@H]1C[C@H](N)C1` (stereo partly drawn) [compound 72, N-((2S)-1-((1r,3S)-3-aminocyclobutane-1-carbonyl)-2-methylpiperidin-4-yl)-5-cyclopropylisoxazole-3-carboxamide], the IC50 is 2.72 µM.
Consider `N[C@H]1CC[C@H](C(=O)N2C3CCCC2CC(NC(=O)c2cc(C4CC4)on2)C3)CC1` (stereo partly shown) [compound 73, N-(9-((1r,4r)-4-aminocyclohexane-1-carbonyl)-9-azabicyclo[3.3.1]nonan-3-yl)-5-cyclopropylisoxazole-3-carboxamide], for which the concentration for half-maximal inhibition (IC50) was 5.35 µM.
Take `CCS(=O)(=O)N1CCC(NC(=O)c2cc(C3CC3)on2)C[C@H]1C` (stereo partly drawn) [compound 75, 5-cyclopropyl-N-((2R)-1-(ethylsulfonyl)-2-methylpiperidin-4-yl)isoxazole-3-carboxamide]: the concentration for half-maximal inhibition (IC50) was 7.31 µM.
The value for `CC[C@H]1CN(C(=O)CC2CCNCC2)CC[C@@H]1NC(=O)c1cc(C2CC2)on1` [compound 76, 5-cyclopropyl-N-((3S,4S)-3-ethyl-1-(2-(piperidin-4-yl)acetyl)piperidin-4-yl)isoxazole-3-carboxamide] was 0.541 µM.
On to `N[C@H](Cc1ccc(O)cc1)CN1CCC(NC(=O)c2cc(C3CC3)on2)CC1` [compound 79, (R)-N-(1-(2-amino-3-(4-hydroxyphenyl)propyl)piperidin-4-yl)-5-cyclopropylisoxazole-3-carboxamide], for which the IC50 turned out to be 20.4 µM.
For `CC1CN(C(=O)CCN)CCC1NC(=O)c1cc(C2CC2)on1` (stereo not shown) [compound 80, N-(1-(3-aminopropanoyl)-3-methylpiperidin-4-yl)-5-cyclopropylisoxazole-3-carboxamide], the IC50 is 6.81 µM.
Turning to `C[C@@H]1CC(NC(=O)c2cc(C3CC3)on2)CCN1C(=O)CN` (stereo partly drawn) [compound 81, 5-cyclopropyl-N-((2R)-1-glycyl-2-methylpiperidin-4-yl)isoxazole-3-carboxamide], the IC50 was 22.1 µM.
The value for `C[C@H]1C[C@@H](NC(=O)c2cc(C3CC3)on2)CCN1C(=O)CCN` [compound 82, N-((2S,4S)-1-(3-aminopropanoyl)-2-methylpiperidin-4-yl)-5-cyclopropylisoxazole-3-carboxamide] was 10.5 µM; that for `C[C@H]1C[C@H](NC(=O)c2cc(C3CC3)on2)CCN1C(=O)CCN` [compound 83, N-((2S,4R)-1-(3-aminopropanoyl)-2-methylpiperidin-4-yl)-5-cyclopropylisoxazole-3-carboxamide] was 6.6 µM.
`C[C@@H]1CC(NC(=O)c2cc(C3CC3)on2)CCN1C(=O)CCN` (stereo partly drawn) [compound 84, N-((2R)-1-(3-aminopropanoyl)-2-methylpiperidin-4-yl)-5-cyclopropylisoxazole-3-carboxamide]: the IC50 was determined as 6.14 µM.
Consider `C[C@H]1CC(NC(=O)c2cc(C3CC3)on2)CCN1C(=O)[C@@H]1CC[C@@H](N)C1` (stereo partly drawn) [compound 85, N-((2S)-1-((1R,3R)-3-aminocyclopentane-1-carbonyl)-2-methylpiperidin-4-yl)-5-cyclopropylisoxazole-3-carboxamide], for which the IC50 is 2.37 µM.
Turning to `C[C@H]1CC(NC(=O)c2cc(C3CC3)on2)CCN1C(=O)[C@@H]1CC[C@H](N)C1` (stereo partly drawn) [compound 86, N-((2S)-1-((1R,3S)-3-aminocyclopentane-1-carbonyl)-2-methylpiperidin-4-yl)-5-cyclopropylisoxazole-3-carboxamide], the IC50 came to 2.56 µM.
Turning to `C[C@@H]1CC(NC(=O)c2cc(C3CC3)on2)CCN1C(=O)[C@H]1C[C@@H](N)C1` (stereo partly drawn) [compound 87, N-((2R)-1-((1s,3S)-3-aminocyclobutane-1-carbonyl)-2-methylpiperidin-4-yl)-5-cyclopropylisoxazole-3-carboxamide], the IC50 worked out at 3.25 µM.
Take `NC1CCC(C(=O)N2CCC(NC(=O)c3cc(C4CC4)on3)CC2c2ccccc2)CC1` (stereo not shown) [compound 89, N-(1-((1r,4r)-4-aminocyclohexane-1-carbonyl)-2-phenylpiperidin-4-yl)-5-cyclopropylisoxazole-3-carboxamide]: the IC50 stood at 3.39 µM.
Turning to `CN[C@H]1CC[C@H](C(=O)N2CCC(NC(=O)c3cc(C4CC4)on3)C[C@@H]2C)CC1` (stereo partly drawn) [compound 90, 5-cyclopropyl-N-((2S)-2-methyl-1-((1r,4S)-4-(methylamino)cyclohexane-1-carbonyl)piperidin-4-yl)isoxazole-3-carboxamide], the IC50 stood at 5.33 µM.
As to `C[C@H]1CC(NC(=O)c2cc(C3CC3)on2)CCN1C(=O)CN1CCNCC1` (stereo partly drawn) [compound 91, 5-cyclopropyl-N-((2S)-2-methyl-1-(2-(piperazin-1-yl)acetyl)piperidin-4-yl)isoxazole-3-carboxamide], the IC50 stood at 3.91 µM.
The value for `C[C@@H]1CC(NC(=O)c2cc(C3CC3)on2)CCN1C(=O)CN1CCNCC1` (stereo partly drawn) [compound 92, 5-cyclopropyl-N-((2R)-2-methyl-1-(2-(piperazin-1-yl)acetyl)piperidin-4-yl)isoxazole-3-carboxamide] was 0.778 µM.
